“Also recorded” adds a separate entry of the source.
Columns and labels:
[1] = tested on: patient with neuropathic pain in both feet; assay: Case report 2: topical bromhexine cream, NRS pain score, neuropathic forefoot pain; format: in vivo, human; details: for effect of earlier treatment (patient history): before bromhexine
Text: (§1) In the following Examples a dermal topical cream was used comprising 20% (w/w) bromhexine HCl (10 g), medium-chain triglycerides (MCTs; Triglycerida Saturata Medium Migloyol® 812N, FAGRON GmbH & Co. KG, Cas No. 73398-61-5) (5 g), Linola Creme ad 50 g (Dr. August Wolff GmbH & Co. KG Arzneimittel, PZN 02489672; emulsion O/W containing unsaturated fatty acids (C182), carbomer 980, decyloleat, glycerol monosterate, ceteareth-3, phenoxyethanol, stearic acid, trometamol, wax bleached and purified water), unless stated otherwise. The dermal topical cream was prepared by mixing bromhexine with the MCTs and adding the Linola Creme to obtain a homogenous cream. We chose a dermal topical cream rather than a gel, because a cream is better absorbed by the skin. Bromhexine was fast and easy to formulate into a topical pharmaceutical composition, particularly into a homogenous cream.
(§2) The dermal topical cream was administered (thinly) to the skin in the affected area and a beneficial effect was typically noticed within 30 min. The effect lasted for about 4 to 12 hours, typically 6 hours. For long term treatment the cream was administered 2 to 3 times per day. In some cases a once daily administration was sufficient.
(§3) In all case reports shown below, the intensity of pain is reported with the NRS-Score (NRS=numeric rating scale) on which the patient rates their pain between ‘0=no pain’ and ‘10=unbearable pain’. The NRS-Score is the standard of pain evaluation in international publications and according to the literature an intensity of NRS 3 or lower usually is felt as ‘tolerable’ by patients with chronic pain.
The […] presented neuropathic pain in both feet and felt “running on coals” and as “gripped in a vice”, walking or gardening were almost impossible. It could not be explained in orthopaedic terms and no polyneuropathy was detected on neurographic investigation. […] Gabapentin, opiates and topical lidocaine were not helpful. After topical bromhexine the pain of NRS 5 during the heel-to-toe roll and the forefoot touch sensitivity decreased to NRS 1 within 15 min and disappeared after 30 min for hours (FIG. 6, last columns, “neuropathic forefoot pain”).

[2] = tested on: patient with osteoarthritis in both knees and chronic postsurgical pain (CPSP) after knee replacement; assay: Case report 1: topical bromhexine cream, NRS pain score, knees; format: in vivo, human
Text: as §1, §2, §3
A patient suffered from osteoarthritis in both knees and had received knee replacement followed by chronic postsurgical pain (CPSP) in one of it. […] Starting on a pain level of NRS 7, 30 min after topical bromhexine the pain decreased to NRS 6 and to NRS 4 within 2 hours. […] On another occasion the pain was reduced in both knees from NRS 6 before bromhexine treatment to NRS 3 after 2 hours.

mucus = details: cited from earlier work
[3] = tested on: patient with pain in right hand and wrist due to osteoarthritis; assay: Case report 3: topical bromhexine cream, NRS pain score, osteoarthritis of hand and wrist; format: in vivo, human; details: within 2 hours after topical bromhexine cream; NRS 6 before treatment
Text: as §1
as §2, with “sufficient. […]” for “sufficient.”

[4] = tested on: patient with complex regional pain syndrome (CRPS); assay: Case report 7: topical bromhexine, complex regional pain syndrome (CRPS); format: in vivo, human; details: 30-45 min following the treatment
Text: as §1
as §2, with “sufficient. […]” for “sufficient.”

[5] = in vivo; cited from earlier work
[6] = tested on: patient with painful left knee after meniscus surgery; assay: Case report 3: topical bromhexine, NRS pain score, knee pain after meniscus surgery; format: in vivo, human; details: after bromhexine treatment; NRS 8 before; time not stated
Text: as §1
as §2, with “sufficient. […]” for “sufficient.”

[7] = tested on: patient with postherpetic neuralgia; assay: Case report 4: topical bromhexine, postherpetic neuralgia; format: in vivo, human; details: for pain in the treated area (NRS): untreated abdominal area unchanged
Text: as §1, §2, §3
A patient contracted an infection with the herpes zoster virus followed by skin eruptions 3 years ago. In the affected area of the right thorax they developed a dynamic allodynia and pinprick hyperalgesia and hypersensitivity to cold and airbrush which spread out circular to the abdominal region. Only the dorsal part of the area was treated with bromhexine. […]

[8] = tested on: patient with chronic severe pain syndrome of both hands and arms from unclear origin; assay: Case report 8: topical bromhexine, chronic unclear severe pain syndrome of hands and arms; format: in vivo, human
Text: as §1, §2
Further the extent of possible finger spreading was much better in their left hand, which was treated with the bromhexine compared to their untreated right hand (FIG. 1 C). Particularly the extent of the “pain limited” finger spreading of their bromhexine treated left hand hand compared to their untreated right hand increased. In their untreated right hand pain started immediately with the first movement. Further, the extent of possible free of pain elbow rotation 20 min after bromhexine in their left treated elbow increased (FIG. 1D, bottom panel). No movement free of pain was possible in their right elbow (FIG. 1D, top panel).

[9] = tested on: patient with fibromyalgia pain; assay: Case report 11: topical bromhexine, fibromyalgia pain of the hands; format: in vivo, human
Text: as §1
as §2, with “sufficient. […]” for “sufficient.”

[10] = tested on: patient with chronic pain caused by osteoarthritis of the fingers; assay: Case report 9: topical bromhexine, osteoarthritis of the fingers; format: in vivo, human; details: 15 min after topical bromhexine; before: incomplete and very painful
Text: as §1, §2
A patient with chronic pain caused by osteoarthritis of the fingers for many years. Forming a fist was incomplete and very painful. […]

treated patients = assay: Topical bromhexine cream in pain patients: onset, duration, side effects (all cases); format: in vivo, human
Text: as §1
as §2, with “sufficient. […]” for “sufficient.”

[11] = tested on: patient with rheumatoid arthritis and fibromyalgia; assay: Case report 6: topical bromhexine cream, rheumatoid arthritis and fibromyalgia, hands; format: in vivo, human
Text: as §1, §2
A rheumatoid arthritis and fibromyalgia for many years developed a chronic pain disease in a person. Hands were distorted painfully and movements like the closure of fist were only possible very slowly and the movement was painful and incomplete. Self-supply was threatened. The medical options for pain therapy were limited due to long-term side effects on stomach, kidney, cardiovascular system and liver by nonsteroidal anti-rheumatic drugs (NSAIDS) or coxibes as well as the risk of tumbling caused by central nervous effects as sedation and dizziness. Bromhexine cream was applied at both hands. Already 2 min later the patients started to move both hands and ‘searched their pain’ because it was improved and movements could be performed more easily, quickly and complete. […]

[12] = tested on: patient with severe fibromyalgia pain; assay: Case report 10: topical bromhexine, severe fibromyalgia; format: in vivo, human; details: 25 min after topical bromhexine
Text: as §1, §2
A patient with severe fibromyalgia pain presented an exacerbation with painful hand/finger movements and swelling. […] The patient was surprised about the reduced swelling, the possibility of the closure of fist and a reduction of the functional impairment during movement. Closure of the fist was only possible to a half-closed position without (or almost no) pain before treatment (FIG. 4C, top panel).

[13] = tested on: patient with severe chronic low back pain and S1 radiculopathy; assay: Case report 5: topical bromhexine, low back pain (S1-radiculopathy); format: in vivo, human
Text: as §1
as §2, with “sufficient. […]” for “sufficient.”

rodents = details: cited from earlier work
humans = details: cited from earlier work
[14] = target: T1, tetrodotoxin-resistant (TTXr) Na+ currents encoded by Nav1.8 (Homo sapiens, UniProt Q9Y5Y9); details: preference for TTXr Na+ currents encoded by Nav1.8; cited from earlier work
T1 construct: host or cells: sensory neurons

CCN(CC)CC(=O)Nc1c(C)cccc1C [lidocaine]
effect of earlier treatment (patient history) [1]: not helpful
effect of earlier treatment (patient history) ([2]; topical plasters, before bromhexine): not been helpful

NCC1(CC(=O)O)CCCCC1 [Gabapentin]
effect of earlier treatment (patient history) [1]: not helpful

CN(Cc1cc(Br)cc(Br)c1N)C1CCCCC1 [bromhexine, 2,4-dibromo-6-[[cyclohexyl(methyl)amino]methyl]aniline]
secretion volume (mucus; in vivo): increases
viscosity of the sputum (mucus; in vivo): decreases
side-effects (mucus; known oral use): very few side-effects
pain (NRS) [3]: 0.5 NRS
motions of the hand [4]: without stabbing sensations
burning pain (NRS) ([4]; 8 NRS before): 3 NRS
bioavailability [5]: relatively low
hepatic first-pass effect [5]: up to 80%
passage of the blood-brain barrier [5]: pass the blood-brain barrier
pain intensity (NRS) [6]: 4.5 NRS
functional impairment of walking ([1]; 8 hours later): without recurrence
pain level (NRS) ([1]; 8 hours later, NRS 5 before): 2 NRS
pain during heel-to-toe roll and forefoot touch sensitivity ([1]; after 30 min, for hours, NRS 5 before): disappeared
pain level (NRS) during heel-to-toe roll and forefoot touch sensitivity ([1]; within 15 min after topical bromhexine, NRS 5 before): 1 NRS
pain in the treated area (NRS) ([7]; after 15 min): 4 NRS
pain in the treated area (NRS) ([7]; after 30 min): 1 NRS
tingling sensation and subjective hypersensitivity ([7]; after the first few minutes, treated dorsal area): disappeared completely
swelling in the treated area ([8]; 20 min after bromhexine): reduction of swelling
extent of possible free of pain elbow rotation ([8]; 20 min after bromhexine, left treated elbow): increased
reddening of the treated left hand ([8]; 20 min following topical bromhexine, right hand untreated): reduction of reddening
pain and feeling of swelling and tension ([8]; 20 min following topical bromhexine, treated left hand): impressive reduction
movements of the left hand and arm ([8]; about 30 min after bromhexine, none free of pain in untreated right arm): able to perform movements free of pain; also recorded: diverse possible movements free of pain
extent of possible finger spreading ([8]; treated left hand compared to untreated right hand, 20 min): much better
stabbing ([9]; 30 min following topical bromhexine): disappeared
pain in both hands with tension, stiffness, swelling and stabbing ([9]; 30 min following topical bromhexine to the hands, NRS 5 before): disappeared broadly
pain level (NRS) ([2]; 30 min after topical bromhexine, starting pain level NRS 7, knee with CPSP): 6 NRS
pain level (NRS) ([2]; another occasion, both knees, NRS 6 before bromhexine, after 2 hours): 3 NRS
pain level (NRS) ([2]; within 2 hours after topical bromhexine, starting pain level NRS 7, knee with CPSP): 4 NRS
closure of the fist [10]: closed completely and with reduced pain; also recorded: performed completely and with reduced pain
side effects (treated patients): None of the treated patients reported side effects
closure of fist ([11]; 5 min after topical bromhexine, both hands): improved notable in motion sequence; also recorded: improved notably in motion sequence
time to first improvement of pain and movements ([11]; after application of bromhexine cream at both hands): 2 min
duration of the improvement ([11]; in vivo): several hours
swelling of the treated right hand [12]: strongly reduced
closure of the fist ([12]; before: only half-closed without pain): completely possible without pain; also recorded: closed completely and without pain
movement of the thumb to the palm ([12]; impossible before): free of pain; also recorded: not any longer limited by pain
stabbing sensations ([13]; after bromhexine): reduced
pain level (NRS) ([13]; within 30 minutes, NRS 6 before bromhexine): about 4

Nc1c(Br)cc(Br)cc1CN[C@H]1CC[C@H](O)CC1 [Ambroxol]
pain-related behavior (rodents): reduce pain-related behavior
pain (humans): alleviate pain
Na+ currents in sensory neurons [14]: block Na+ currents
